Values joined by “and” are separate entries in the source; they are usually repeats but may differ in a detail not shown here. Equal values may be shown once. “Also recorded” adds a separate entry of the source.
Key:
[1] = Critical micelle concentration by hydrophobic fluorescence staining with diphenylhexatriene (DPH); assay type: physicochemical; conditions: aqueous solution
Description: A method of measuring CMC is not particularly limited, and may be a method widely known in the art, for example, fluorescent staining using diphenylhex riene (DPH).
(§1) To identify the properties of VEGs synthesized according to the synthetic methods of Preparation Examples 1 to […] molecular weights (M.W.) and critical micellar concentrations (CMCs) of VEGs, and the hydrodynamic radii (Rh) of formed micelles were measured.
(§2) Specifically, the CMCs were measured using hydrophobic fluorescence staining and diphenylhexatriene (DPH), and the hydrodynamic radii (Rh) of the micelles formed by each formulation were measured by dynamic light scattering (DLS).

[2] = Hydrodynamic radius of micelles by dynamic light scattering (DLS); assay type: physicochemical; conditions: at 1.0 wt %
Description: A method of measuring the radius of a micelle is not particularly limited, but may be a method well known in the art, for example, dynamic light scattering (DLS).
as §1, §2

[3] = target: T1, UapA (Emericella nidulans, UniProt Q07307, G411V); test: UapA extraction and thermal stability by fluorescence size exclusion chromatography (FSEC); parameters: made in house; conditions: for UapA integrity after thermal treatment (FSEC): 45° C. for 10 minutes; for Ability to extract and solubilize UapA (FSEC): before thermal treatment, 60 minutes on ice
Description: The membrane containing UapA was resuspended in a pH 8.0 PBS buffer containing 10 mM imidazole, 150 mM NaCl and 10% glycerol, and a protein concentration was measured. The membrane was adjusted to a concentration of 1 mg/ml, and a 1 ml aliquot was incubated for 60 minutes with each of 1.0 mL of DDM, LMNG, VEG-3 and VEG-5, on ice under stirring. A 100 uL aliquot was obtained from each tube and subjected to ultracentrifugation for 10 minutes at 150,000 g, and then fluorescent SEC (FSEC) was performed on each sample. The remaining soluble fractions were incubated for 10 minutes at 45° C. The thermally-treated samples were applied to FSEC to monitor the integrity of a transporter. FSEC was performed using a Superose6 column (GE Healthcare) equilibrated with a buffer containing an appropriate preparation (DDM, LMNG, VEG-3 or VEG-5).

[4] = target: T2, β2AR-Gs complex (Homo sapiens, UniProt P07550); conditions: complex purified by DDM, previous study; cited from earlier work
T2 construct: made in house

[5] = target: T3, MelBSt (melibiose permease) (Salmonella typhimurium, UniProt P30878); test: MelBSt extraction/solubilization and thermal stability, SDS-PAGE and Western blotting
T3 construct: made in house; host or cells: E. coli DW2 (ΔmelB and ΔlacZY), plasmid pK95ΔAHB/WT MelBSt/CH10
Description: Specifically, Salmonella typhimurium MelBSt (melibiose permease) having a 10 His tag at the C-terminus was expressed in E. coli DW2 cells (ΔmelB and ΔlacZY) using a pK95ΔAHB/WT MelBSt/CH10 plasmid. Cell growth and membrane preparation were carried out according to the methods disclosed in the paper written by A. S. Ethayathulla et al. (Nat. Commun. 2014, 5, 3009). A protein assay was performed using a Micro BCA kit (Thermo Scientific, Rockford, Ill.). MelBSt stability in VEGs or DDM was evaluated using the protocol disclosed in Nat. Methods 2010, 7, 1003-1008, written by P. S. Chae et al. A MelBSt-containing membrane sample (the final protein concentration was 10 mg/mL) was incubated in a solubilization buffer containing 1.5% (w/v) DDM or VEGs (50 mM sodium phosphate, pH 7.5, 200 mM NaCl, 10% glycerol, 20 mM melibiose) at two different temperatures (0 and 23° C.) for 90 minutes. To remove an insoluble material, ultracentrifugation was performed using a Beckman Optima™ MAX ultracentrifuge equipped with a TLA-100 rotor at 355,590 g and 4° C. for 30 minutes. […] The loaded samples were analyzed by SDS-15% PAGE, and then visualized by immunoblotting with a Penta-His-HRP antibody (Qiagen, Germantown, Md.).
To assess the thermal stability of MelBSt in various amphipathic molecules, MelBSt extracted with individual amphipathic molecules at 23° C. was subjected to additional thermal treatment at three different temperature (45, 55 and 65° C.) and ultracentrifugation, followed by SDS-15% PAGE and Western blotting. MelBSt was detected using a SuperSignalWest Pico chemiluminescent substrate by an ImageQuant LAS 4000 Biomolecular Imager (GE Healthcare Life Science).

[6] = target: T4, β2AR (Homo sapiens, UniProt P07550); test: β2AR stability, [3H]-dihydroalprenolol (DHA) ligand binding; conditions: CMC+0.2 wt %, 10 days at room temperature
T4 construct: made in house; host or cells: Sf9 insect cells, baculovirus
Description: A receptor was expressed in Sf9 insect cells infected with Baculovirus and solubilized in 1% DDM. The DDM-solubilized receptor was purified by alprenolol-sepharose in the presence of 0.01% cholesteryl succinate (CHS). β2AR purified by DDM was diluted with a buffer containing DDM or VEGs (VEG-1, VEG-2, VEG-3 and VEG-5) to reach the final concentration of CMC+0.2 wt %. β2AR solubilized in each compound was stored for 10 days at room temperature, and the ligand binding ability of the receptor was measured at regular intervals by incubating the receptor with 10 nM radioactive [^3H]-dihydroalprenolol (DHA) for 30 minutes at room temperature. The mixture was loaded into a G-50 column, and a supernatant was collected using a certain amount of binding buffer (supplemented with […] pH 7.5, 100 mM NaCl, 0.5 mg/ml BSA). In addition, a 15 ml scintillation fluid was added. Receptor-binding [^3H]-DHA was measured using a scintillation counter (Beckman).

[7] = target: T2, β2AR-Gs complex; conditions: DDM-purified complex, previous study; cited from earlier work
[8] = target: T1, UapA; test: UapA thermal stability, CPM assay; parameters: made in house; host or cells: Saccharomyces cerevisiae FGY217 membranes; conditions: CMC+0.2 wt %, 40° C. for 120 minutes
Description: UapAG411VΔ1-11 (hereinafter, referred to as “UapA”) was expressed in a Saccharomyces cerevisiae FGY217 strain by GFP fusion, and isolated into a sample buffer (20 mM Tris (pH 7.5), 150 mM NaCl, 0.03% DDM, 1 mM xanthine), which was performed according to the method disclosed in the paper written by J. Leung et al. (Mol. Menthr. Biol. 2013, 30, 32-42). The protein was concentrated to be approximately 10 mg/ml using a 100 kDa molecular weight cutoff filter (Millipore). The protein was diluted 1:150 with a buffer containing DDM, VEG (VEG-1, VEG-2, VEG-3, VEG-4 or VEG-5) or LMNG at CMC+0.2 wt % in Greiner 96. CPM dye (Invitrogen) stored in DMSO (Sigma) was diluted with a dye buffer (20 mM Tris (pH 7.5), 150 mM NaCl, 0.03% DDM, 5 mM EDTA), and 3 μL of the diluted dye was added to an individual protein sample. The reaction mixture was treated at a constant temperature of 40° C. for 120 minutes. A fluorescence emission intensity was monitored using a microplate spectrofluorometer set to excitation and emission wavelengths of 387 and 463 nm, respectively. The maximum fluorescence value was used to calculate the percentage of a protein folded during incubation. The relative amount of the folded protein was plotted over time using GraphPad Prism.

[9] = 1.5 wt %, extracted at 23° C., then 55° C.

T1 sequence (Q07307 12-574 G411V): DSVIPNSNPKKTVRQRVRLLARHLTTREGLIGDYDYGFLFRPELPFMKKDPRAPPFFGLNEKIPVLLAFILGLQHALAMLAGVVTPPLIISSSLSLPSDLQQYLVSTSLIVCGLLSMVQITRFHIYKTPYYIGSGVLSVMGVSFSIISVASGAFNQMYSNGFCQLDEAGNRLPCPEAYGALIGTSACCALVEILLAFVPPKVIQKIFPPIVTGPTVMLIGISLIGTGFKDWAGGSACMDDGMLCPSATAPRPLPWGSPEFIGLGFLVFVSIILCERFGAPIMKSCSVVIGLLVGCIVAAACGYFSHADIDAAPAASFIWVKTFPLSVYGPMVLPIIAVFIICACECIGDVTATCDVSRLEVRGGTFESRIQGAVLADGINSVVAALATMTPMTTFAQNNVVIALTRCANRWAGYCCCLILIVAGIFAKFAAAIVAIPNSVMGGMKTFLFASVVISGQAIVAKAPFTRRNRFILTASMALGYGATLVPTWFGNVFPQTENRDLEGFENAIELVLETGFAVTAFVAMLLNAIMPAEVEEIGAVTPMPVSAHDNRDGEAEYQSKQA
T3 sequence (P30878 whole entry): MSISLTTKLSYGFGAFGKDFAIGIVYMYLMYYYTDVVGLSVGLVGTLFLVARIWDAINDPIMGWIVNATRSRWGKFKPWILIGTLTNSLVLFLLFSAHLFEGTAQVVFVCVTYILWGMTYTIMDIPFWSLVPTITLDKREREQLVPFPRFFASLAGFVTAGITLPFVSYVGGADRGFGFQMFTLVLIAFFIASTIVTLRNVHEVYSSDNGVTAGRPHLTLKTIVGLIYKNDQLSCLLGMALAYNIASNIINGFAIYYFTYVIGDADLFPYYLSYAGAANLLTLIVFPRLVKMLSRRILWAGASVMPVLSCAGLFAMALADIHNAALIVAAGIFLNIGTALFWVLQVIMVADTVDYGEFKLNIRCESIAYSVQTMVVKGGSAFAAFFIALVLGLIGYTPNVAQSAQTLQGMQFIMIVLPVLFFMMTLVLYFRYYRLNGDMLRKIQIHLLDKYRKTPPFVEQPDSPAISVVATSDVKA
T4 sequence (P07550 whole entry): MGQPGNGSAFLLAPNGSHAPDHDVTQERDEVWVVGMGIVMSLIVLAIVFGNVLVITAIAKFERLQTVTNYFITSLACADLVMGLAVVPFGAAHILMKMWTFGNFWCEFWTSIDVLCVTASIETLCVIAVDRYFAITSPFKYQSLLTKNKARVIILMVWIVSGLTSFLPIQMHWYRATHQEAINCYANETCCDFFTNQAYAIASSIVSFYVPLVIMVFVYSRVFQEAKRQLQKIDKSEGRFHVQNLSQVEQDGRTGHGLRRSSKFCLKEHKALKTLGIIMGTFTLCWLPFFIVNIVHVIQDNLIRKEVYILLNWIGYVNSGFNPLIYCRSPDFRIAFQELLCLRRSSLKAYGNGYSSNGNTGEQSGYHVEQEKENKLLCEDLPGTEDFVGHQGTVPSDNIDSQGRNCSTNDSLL
T2 sequence (P07550 whole entry): as above
T2 sequence (P63092 whole entry partner): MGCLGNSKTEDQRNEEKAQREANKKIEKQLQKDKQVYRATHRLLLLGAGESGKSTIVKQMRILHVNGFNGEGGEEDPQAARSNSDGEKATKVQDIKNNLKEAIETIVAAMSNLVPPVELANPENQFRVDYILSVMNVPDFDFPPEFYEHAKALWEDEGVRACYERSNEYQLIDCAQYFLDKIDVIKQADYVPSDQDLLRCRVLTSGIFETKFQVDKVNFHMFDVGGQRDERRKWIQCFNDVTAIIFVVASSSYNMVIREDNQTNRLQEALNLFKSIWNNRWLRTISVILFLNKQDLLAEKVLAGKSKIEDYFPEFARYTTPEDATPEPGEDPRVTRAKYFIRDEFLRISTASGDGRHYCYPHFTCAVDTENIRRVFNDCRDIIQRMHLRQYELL
T2 sequence (P62873 whole entry partner): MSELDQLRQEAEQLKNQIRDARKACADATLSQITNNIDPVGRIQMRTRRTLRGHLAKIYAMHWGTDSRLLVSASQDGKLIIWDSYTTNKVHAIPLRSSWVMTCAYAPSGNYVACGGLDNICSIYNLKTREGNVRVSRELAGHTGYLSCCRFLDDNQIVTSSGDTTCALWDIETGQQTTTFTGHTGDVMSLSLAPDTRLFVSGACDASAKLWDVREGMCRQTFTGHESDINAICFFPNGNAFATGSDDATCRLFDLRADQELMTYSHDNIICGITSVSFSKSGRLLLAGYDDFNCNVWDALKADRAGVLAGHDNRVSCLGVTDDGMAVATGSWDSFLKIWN
T2 sequence (P59768 2-68 partner limits assumed): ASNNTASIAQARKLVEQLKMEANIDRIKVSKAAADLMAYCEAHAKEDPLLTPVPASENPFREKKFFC

Structure (SMILES) | CMC [1] | CMC (wt %) [1] [wt %] | Rh (nm), hydrodynamic radius of micelles [2] [nm] | UapA integrity after thermal treatment (FSEC) [3] | Ability to extract and solubilize UapA (FSEC) [3] | Integrity of the purified β2AR-Gs complex [4] | MelBSt extraction/solubilization efficiency from the cell membrane ([5]; 1.5 wt % detergent, 0° C. and 23° C., 90 minutes) | MelBSt solubilization efficiency ([5]; 1.5 wt %, extracted at 23° C., then 45° C.) | MelBSt solubilization efficiency [5, 9] | Long-term β2AR activity ([3H]-DHA binding) [6] | Homogeneity of β2AR-Gs complex particles (EM) [7] | MelBSt solubilization ability ([5]; 1.5 wt %, extracted at 23° C., then 65° C.) | MelBSt transporter solubilization ability in the thermal stability experiment ([5]; elevated temperatures (overall)) | Ability to maintain UapA in a structurally stable state (CPM assay) [8]
Cc1c(C)c2c(c(C)c1OCC(CO[C@@H]1OC(CO)[C@@H](O)[C@H](O)C1O)(CO[C@@H]1OC(CO)[C@@H](O)[C@H](O)C1O)CO[C@@H]1OC(CO)[C@@H](O)[C@H](O)C1O)CCC(C)(CCCC(C)CCCC(C)CCCC(C)C)O2 (stereo partly shown) [VEG-1] | ~0.002 mM | ~0.0002 | 4.2 ± 0.1 |  |  |  |  |  |  |  |  |  |  | 
CCCCCCCCCCCCO[C@@H]1O[C@H](CO)[C@@H](O[C@H]2O[C@H](CO)[C@@H](O)[C@H](O)[C@H]2O)[C@H](O)[C@H]1O [DDM, n-dodecyl-β-D-maltopyranoside, reference compound] | 0.17 mM and 0.170 mM | 0.0087 | 3.4 ± 0.0 | considerably degraded | superior to VEG-3 and VEG-5 | significant dissociation between the receptor and Gs protein even after 2 day-incubation | more efficient; also recorded: higher protein extraction efficiency than VEGs | almost similar efficiencies | significant decrease | rapid loss of activity over time | aggregation of particles |  |  | 
Cc1c(C)c2c(c(C)c1OCCOCC(CO[C@@H]1OC(CO)[C@@H](O)[C@H](O)C1O)(CO[C@@H]1OC(CO)[C@@H](O)[C@H](O)C1O)CO[C@@H]1OC(CO)[C@@H](O)[C@H](O)C1O)CCC(C)(CCCC(C)CCCC(C)CCCC(C)C)O2 (stereo partly shown) [VEG-2] | ~0.003 mM | ~0.0003 | 4.7 ± 0.1 |  |  |  |  |  |  | consistently maintained during incubation for 10 days |  |  |  | 
Cc1c(C)c2c(c(C)c1OCCC(CO[C@@H]1OC(CO)[C@@H](O[C@H]3OC(CO)[C@@H](O)[C@H](O)C3O)[C@H](O)C1O)CO[C@@H]1OC(CO)[C@@H](O[C@H]3OC(CO)[C@@H](O)[C@H](O)C3O)[C@H](O)C1O)CCC(C)(CCCC(C)CCCC(C)CCCC(C)C)O2 (stereo partly shown) [VEG-4] | ~0.003 mM | ~0.0003 | 5.1 ± 0.1 |  |  |  |  |  | remained intact |  |  | very excellent protein solubilization ability | higher transporter solubilization ability than DDM | 
CCCCCCCCCCC(CCCCCCCCCC)(CO[C@@H]1O[C@H](CO)[C@@H](O[C@H]2O[C@H](CO)[C@@H](O)[C@H](O)[C@H]2O)[C@H](O)[C@H]1O)CO[C@@H]1O[C@H](CO)[C@@H](O[C@H]2O[C@H](CO)[C@@H](O)[C@H](O)[C@H]2O)[C@H](O)[C@H]1O [LMNG, reference compound] |  |  |  | considerably degraded | superior to VEG-3 and VEG-5 |  |  |  |  |  |  |  |  | 
Cc1c(C)c2c(c(C)c1O[C@@H]1OC(CO[C@@H]3OC(CO)[C@@H](O)[C@H](O)C3O)[C@@H](O[C@@H]3OC(CO)[C@@H](O)[C@H](O)C3O)[C@H](O[C@@H]3OC(CO)[C@@H](O)[C@H](O)C3O)C1O[C@@H]1OC(CO)[C@@H](O)[C@H](O)C1O)CCC(C)(CCCC(C)CCCC(C)CCCC(C)C)O2 (stereo partly shown) [VEG-5] | ~0.002 mM | ~0.0002 | 3.9 ± 0.1 | maintained protein integrity | LMNG and DDM were superior to VEG-3 and VEG-5 |  |  |  | remained intact | rapid loss of activity over time |  |  |  | excellent ability to maintain UapA in a structurally stable state
